Experimental data from patent US11291705B2, “Use of caspase-3 inhibitors and caspase-3 activators in the manufacture of medicament for treating cancer and wound healing” (Technion Research & Development Foundation Limited, priority 2016, dated 2022).

Key:
[1] = tested on: 501A melanoma cell line; experiment: Proliferation of melanoma cell line 501A; type: cell-based
Excerpt: (§1) FIGS. 14A-C depict inhibition of Caspase-3 attenuates proliferation of melanoma cells. […] FIG. 14C—Immunofluorescence of decreased Ki67^+ cells (green) after 4 days of Caspase-3 inhibition. Scale bars, 20 μm (FIG. 14C right panels), 100 μm (FIG. 14A, FIG. 14B panels).
(§2) In order to examine this hypothesis, the present inventors first investigated the effect of caspase-3 inhibition on the proliferation rate of melanoma cells. […] Similar results were also obtained when examining 4 additional cell types (HaCaT keratinocytes, Hek293E3, K15 SG progenitors and hair follicle stem cells) (FIGS. 10A-F).

[2] = tested on: YAP; experiment: YAP nuclear translocation and pYAP levels in EGFPhigh SGPZ cells; type: cell-based, mice; conditions: immunoblot
Procedure: (§3) Cell culture—The HaCaT and HEK293 cell lines were cultured in DMEM medium supplemented with 10% FBS, 1% P/S (Pen/Strep) and 1% L-glutamine. Integrin α6^+CD34^+ HFSCs and integrin α6^+CD34^−EGFP^high SGPZ cells were isolated and cultured in HFSC media on sustaining J2 feeder cells. Serum was chelated for a calcium concentration of 50 μM. […] Cells were fixed in 4% PFA for 10 minutes for immunofluorescence analysis or harvested for protein or RNA extraction.
Given that Caspase-3 inhibition hindered cell number and proliferation in vitro the present inventors next examined whether this was mediated via YAP in EGFP^high SGPZ cells using K15^+ SGPZ cells. […] Similar findings as to effect of caspase-3 inhibition on YAP activation and proliferation were also obtained in HaCaT and Hek293E3 cells (FIGS. 3J-K, FIGS. 11B-F).

[3] = tested on: integrin α6+CD34−EGFPhigh SGPZ cells; experiment: Proliferation and expansion of isolated SGPZ cells treated with caspase-3 inhibitors; type: cell-based, mice; conditions: z-DEVD-fmk added initially
Procedure: Flow Cytometry—SGPZ cell isolation and FACS analysis were performed with K15-EGFP mice and CD34, integrin α6 and Sca1 antibodies. K15-GFP^high cells were isolated from ears and dorsal skin of 8-week old B6.Cg-Tg(Krt1-15-EGFP)2Cot/J mice.

[4] = tested on: YAP; experiment: YAP localization and pYAP levels in HEK293 cells; type: cell-based
Procedure: as §3

[5] = tested on: α-Catenin; experiment: α-Catenin levels in low confluent HaCaT cells; type: cell-based
Procedure: as §3
TUNEL was performed using ApopTag TdT (Millipore). […] Analysis was performed on Zeiss LSM 880 confocal microscope.
The levels of α-Catenin are known to be a critical factor in the regulation of YAP (27). In low confluent cells, diminished levels of α-Catenin serve as a mechanotransduction mechanism that instructs the nuclear translocation of YAP and drives proliferation (27, 33). […] The present inventors therefore examined the levels of α-Catenin both in vitro and in vivo, by employing both Western blot analysis and immunofluorescence.

[6] = tested on: excision wounds (1 cm^2) on dorsal skin; experiment: Wound repair of full thickness excision wounds on dorsal skin; type: in vivo, mice
Excerpt: For all wound repair experiments, mice were sedated with isofluorane. Mice were shaved with electric clippers and treated topically with a hair removal cream for a few minutes (Nair). Full-thickness excision wounds (1 cm^2) were generated on the dorsal skins and monitored for wound coverage. PWI, mice were individually housed. At the desired time PWI, mice were euthanized with CO2 and the wounded skins were harvested and either embedded in OCT or prepared for whole mounts as described above or for protein extraction.
Inhibition of caspase-3 impairs wound repair—Since YAP is known to play a chief role in regeneration (34), the present inventors investigated whether in vivo inhibition of Caspase-3 affects the wound repair dynamic by modulating YAP activity. […] Full thickness excision wounds (1.0 cm^2) were generated on the dorsalbacks and monitored for wound coverage. In control mice, three days post wound infliction (PWI) the wound size was reduced by 60% while in Ivachtin and z-DEVD-fink (SEQ ID NO: 71) treated mice, it was reduced by only 10% and 20%, respectively (FIG. 5A and FIG. 5B).

[7] = tested on: integrin α6+CD34+ HFSCs, HaCaT keratinocytes and Hek293E3 cells; experiment: Expansion of other cell types treated with caspase-3 inhibitors; type: cell-based; conditions: one treatment
Excerpt: In order to examine whether Caspase-3 affects the expansion of other cell types the present inventors isolated integrin α6^+CD34^+ HFSCs from second telogen mice.

[8] = tested on: sebaceous gland (SG); experiment: Sebaceous gland (SG) size and cell proliferation in mice injected subcutaneously with caspase-3 inhibitors or activators; type: in vivo; conditions: eight week old mice, subcutaneous injection for 7 days
Procedure: Immunofluorescence—Skins were embedded in OCT, frozen, sectioned, and fixed in 4% paraformaldehyde. Tail samples were treated with 5 mM EDTA for 4 hours at 37° C. to separate skin epithelium from dermis and fixed in formal saline for 2 hours at room temperature. Dorsal samples were treated with 5 mM EDTA for 6 hours at 37° C. to separate skin epithelium from dermis and fixed in formal saline for 1 hour at room temperature. Samples were blocked for 2 hours in Blocking buffer consisting of 10% Goat serum, 2% BSA, 0.2% Triton-X. Primary antibodies were diluted in blocking buffer and tissue/sections were incubated overnight at 4° C. Whole mounts or sections were washed at least 3 times with PBS. Secondary antibodies were incubated for 1 hour at room temperature followed by 4 washes with PBS. The following primary antibodies were used: YAP (Rabbit, 1:100, Cell Signalling, Mouse 1:100 Santa Cruz), pYAP (Rabbit, 1:100 Cell Signalling), α-E-Catenin (Rabbit, 1:100, Cell Signalling), Ki67 (Rabbit, 1:100, Abcam; Rat, 1:100, eBioscience), CD34 (Rat, 1:100, eBioscience), K15 (Mouse, 1:100, Thermo, Chicken, 1:1000, Abcam), Sox9 (Rabbit, 1:100, Millipore, Goat, 1:50, Santa Cruz). Cleaved-Caspase-3 (Rabbit, 1:100, Cell signalling), Phalloidin (1:250, Life Technologies). TUNEL was performed using ApopTag TdT (Millipore). […] Analysis was performed on Zeiss LSM 880 confocal microscope.

[9] = tested on: YAP target genes; experiment: RT-PCR of YAP dependent target genes in treated HaCaT cells; type: cell-based; conditions: relative to DMSO treated cells
Procedure: RNA extraction, reverse transcription and real-time PCR (RT-PCR)—RNA was isolated using Trizol (Sigma) and up to 2 μg of RNA were subjected to cDNA synthesis (Applied Biosystems). Real time PCR was carried out using the PerfeCTa SYBR Green FastMix (Quanta), with gene-specific primers [RpLp0 [sequence] […] Amplicon levels were analysed in triplicate and quantitated relative to a standard curve comprising cDNA, and values normalized to levels of the housekeeping gene (Rplp0 or Gapdh). Reactions were: 3 minutes at 95° C., then 40 cycles of 10 seconds at 95° C. and 30 seconds at 60° C. with addition of melt curve step: 10 seconds at 95° C., and increments of 0.5° C. every 5 seconds between 65° C. to 95° C.

[10] = tested on: B16F10 melanoma cells; experiment: B16F10 melanoma cells in vitro: growth, Ki67, pYAP, α-Catenin; type: cell-based
Excerpt: FIG. 23D—A histogram depicting quantifications of 501-A total cells number after treatment with Z-DEVD-fink (SEQ ID NO: 71). FIG. 23E—Images depicting B16F10 melanoma cells stained for Ki67 (red), active cleaved Caspase-3 (green) and nuclear counterstain DAPI (blue). […] Insets are zoom in on specific cells, Denotation: CP3, Caspase-3. Scale bars: 100 μm. ** (P<0.01), *** (P<0.001).
FIG. 24A—Images depicting B16F10 melanoma cells stained for pYAP (red). […] FIG. 24D—Images depicting B16F10 melanoma cells stained for α-Catenin (green). […] FIG. 24E—Immunoblot analysis of proteins isolated from B16F10 melanoma cells using antibodies against pYAP, α-Catenin and α-Tubulin as control.

[11] = tested on: human melanoma cells; experiment: GFP-infected human melanoma cells injected into recipient mice; conditions: mouse, in vivo
Procedure: FIG. 15A—Melanoma cell were injected into recipient mice. […] Representative image 6 days after first treatment. FIG. 15B—quantification of tumor development indicates inhibition of tumor size in response to caspase-3 inhibition. FIG. 15C—Extracted tumors were analyzed for proliferation using the Ki67 marker and the presence of GFP^+ melanoma cells. FIG. 15D—Tumors treated with the caspase-3 activator ABT-199 result in a dramatic increase in tumor mass. […] Scale bars, 20 μm.
Examination of the effect of caspase-3 inhibition on melanoma formation in vivo—For this aim human melanoma cells were stably infected with GFP. Cells were then injected into to recipient mice and the effect of administrating caspase-3 inhibitors was monitored.

[12] = tested on: 624-38 melanoma cell line; experiment: Proliferation of melanoma cell line 624-38; type: cell-based
Excerpt: as §1, §2

In the case of z-DEVD-fmk, the “cell proliferation and number” value [1] is reported as “dramatic decrease”, the “levels of pYAP” value [2] is reported as “increased pYAP levels” and the cell number [3] is reported as “dramatically inhibited”. For the same substance, the “number of formed colonies” value [3] was “dramatically inhibited”, the “nuclear YAP localization” value [4] was “Decreased nuclear YAP localization” and the pYAP levels ([4]; Western blot) was “increased pYAP levels”. For the same substance, the “levels of α-Catenin” value [5] was “increased levels”, the “de novo HF regeneration from the wound bed” value ([6]; 20 and 30 days PWI) was “inhibited” and the wound closure ([6]; FIGS. 19A-F) was “significant decrease”. For the same substance, the “cells positive for nuclear YAP in the wound border” value ([6]; mouse, in vivo) was “Decreased nuclear YAP”, the “wound size reduced by” value ([6]; three days post wound infliction, injected from 2 days prior to wounding) was 20% and the expansion of cells [7] was “impaired the expansion”. The SG size [8] was “decrease in SG size”, the “ErbB4 expression, downregulation” value [9] was 6 fold and the “HOXA5 expression, decrease” value [9] was 2 fold. For the same substance, the “HOXC13 expression, decrease” value [9] was 5 fold, the “WTIP expression, downregulation” value [9] was 2 fold and the “proliferative (Ki67) cells” value [10] was “reduced levels of proliferative cells”. For the same substance, the “phosphorylated YAP-positive cells (pYAP+)” value ([10]; compared to DMSO) was “significant increases”, the “growth of B16F10 melanoma cells” value ([10]; continuous presence of inhibitor) was “hindered” and the “effect on tumor development, one inhibitor compared with the other” value [11] was “stronger effect”. The “cell proliferation and number” value [12] was “dramatic decrease”.
